We go through two compounds from patent US7173062B2, “Method for the improvement of skin wrinkles using retinyl retinoate” (Enprani Co., Ltd., priority 2001, dated 2007).

Data set [1] concerns Normal human fibroblast (Newborn, passage: 6). Briefly: Collagen synthesis test (Sircol collagen assay). It counts as cell-based. As to conditions: for increasing effect for collagen synthesis over control group treated only by DMEM: 2 days. As for the experimental part:
The effect for collagen synthesis of the compound of formula (1) was examined by using retinol, retinoic acid, and derivatives thereof as comparison compounds to confirm its utility as inhibitors for skin aging as follows. The results are represented in FIG. 2.
Cell: Normal human fibroblast (Newborn, passage: 6)
Medium: DMEM containing 10% FBS→DMEM free of FBS was used when cells were treated with samples.
Concentration: A range of concentration where the samples exert no toxicity to the cells was selected through a cell toxicity test ? 0.000001%, 0.00001%(w/v)
Procedure: 1×10^5 cells/well were inoculated into a 6-well plate. Cells were cultured to show about 79–80% confluent. Cells were treated with test samples and incubated for 2 days (FBS was not added to the medium when cells were treated with samples). After 2 days, cell medium and cells were separated from each other and respectively stored in a refrigerator. The cell extract was subjected to the protein analysis (BCA Protein Assay Kit, PIERCE 23225) and the medium was subjected to collagen analysis.
After the medium was removed, a small amount of PBS was added. Cells were scraped with a scraper. 1N NaOH (100 μl) and distilled water (400 μl) were added and the resulting mixture was allowed to stand overnight. Then, the protein analysis was carried out.
Collagen analysis: Analysis kit (Sircol Collagen assay kit—a dye that specifically combines with soluble collagen is used)
1.0 ml of Sircol Dye Reagent was introduced into each tube and mixed for 30 minutes. The mixture was centrifuged for 10 minutes at 5,000 g or more and the supernatant was removed. 1.0 ml Sircol Alkali Reagent was added, slowly mixed, and absorbance at 540 nm was measured. The amount of protein was converted into the value of collagen analysis (see: Mechanism of Aging and Development 73, 179–187, 1994).
After the above experiment, the increasing ratio for collagen synthesis of the test group over the control group treated only by DMEM was depicted in FIG. 2.

The nature of data set [2]: Photostability test (UV-A 356 nm, 1H NMR). It counts as physicochemical. Set-up: key: 4 = No qualitative change in ^1H NMR spectrum; 3 = Minute noise but no qualitative change in ^1H NMR spectrum; 2 = Clear noise and some qualitative change in ^1H NMR spectrum; 1 = Qualitative confirmation is difficult in ^1H NMR spectrum. As to conditions: room temperature. As to the method: In order to examine photostability of the compound of formula (1) compared with retinol, 10 mg of sample was irradiated by UV-A light (wavelength 356 nm) using a Spectroline (Model CM-10; Fluorescence analysis cabinet; Spectronics Corporation, Westbury, N.Y., USA) at certain intervals of time at room temperature.

Another data set deals with T1, RAR α (Homo sapiens, UniProt P10276).
T1 construct: expressed in transfected cells; host or cells: HaCaT
T1 sequence (P10276 1-462): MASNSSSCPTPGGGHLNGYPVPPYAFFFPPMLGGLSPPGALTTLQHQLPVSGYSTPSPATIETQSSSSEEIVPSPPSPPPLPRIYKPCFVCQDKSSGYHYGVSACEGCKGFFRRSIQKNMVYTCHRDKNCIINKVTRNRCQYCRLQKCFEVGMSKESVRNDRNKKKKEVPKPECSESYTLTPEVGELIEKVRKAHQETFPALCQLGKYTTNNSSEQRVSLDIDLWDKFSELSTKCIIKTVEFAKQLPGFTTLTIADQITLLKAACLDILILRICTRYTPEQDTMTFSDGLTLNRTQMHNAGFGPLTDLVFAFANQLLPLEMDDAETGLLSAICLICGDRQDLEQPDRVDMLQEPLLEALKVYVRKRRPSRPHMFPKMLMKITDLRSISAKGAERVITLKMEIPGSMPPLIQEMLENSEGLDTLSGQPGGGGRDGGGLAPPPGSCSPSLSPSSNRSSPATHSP
Briefly: Activity for RAR α (CAT reporter in HaCaT cells). Format: cell-based. The following applies: 1 μM, CAT ELISA. As to the method: (§1) The effect of the retinol derivatives on the activity of RAR and RXR was examined as follows.
(§2) Experimental procedure: Recombinant gene of DR5-tk-CAT or DR1-tk-CAT comprising DR1 or DR5 as a response element of RAR/RXR, […] promoter, and CAT (chloramphenicol acetyl transferase) was suitably combined with a plasmid DNA that expresses RAR α, β, γ and cotransfected to HaCaT cell line, a skin cancer cell line, with Lipofectamin (GibcoBRL). Then, the cells were incubated in DMEM/10% FBS medium for 1 day, retinol derivative was added in a concentration of 1 μM, and the cells were incubated again for 1 day under the condition of 5% CO2 and 37° C. The cells were washed with phosphate-buffered salione (PBS). Proteins were extracted from each cell, the activity of β-galactosidase was assayed, and the amount of protein was measured to determine the transfection efficiency. Further, the degree of transcription for RAR or RXR was analyzed by CAT ELISA (Roche Molecular Biochemicals, Mannheim, Germany).
For orientation: In an ELISA, binding on a coated surface is turned into a signal by an enzyme label.

Another data set addresses T2, RAR γ (Homo sapiens, UniProt P13631).
T2 construct: expressed in transfected cells; host or cells: HaCaT
T2 sequence (P13631 1-454): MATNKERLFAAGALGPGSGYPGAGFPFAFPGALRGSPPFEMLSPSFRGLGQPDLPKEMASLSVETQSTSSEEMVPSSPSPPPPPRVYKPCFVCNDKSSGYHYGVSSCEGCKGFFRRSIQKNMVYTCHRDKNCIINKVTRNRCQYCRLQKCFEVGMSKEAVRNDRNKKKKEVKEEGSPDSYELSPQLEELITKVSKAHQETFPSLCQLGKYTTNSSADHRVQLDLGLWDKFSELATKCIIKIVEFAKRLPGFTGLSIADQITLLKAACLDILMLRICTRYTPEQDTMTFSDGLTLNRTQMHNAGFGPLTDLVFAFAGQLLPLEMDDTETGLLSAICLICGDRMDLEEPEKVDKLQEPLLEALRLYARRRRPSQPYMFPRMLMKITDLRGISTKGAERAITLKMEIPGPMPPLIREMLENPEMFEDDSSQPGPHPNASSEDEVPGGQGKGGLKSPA
Kind of data set: Activity for RAR γ (CAT reporter in HaCaT cells). Format: cell-based. As to conditions: 1 μM, CAT ELISA. As to the method: as §1, §2

The next data set concerns RXR α, β, γ. Kind of data set: Activity for RXR (CAT reporter in HaCaT cells). Format: cell-based. As to conditions: 1 μM, CAT ELISA. As for the experimental part: as §1, §2
Setting [3] is: Control = 1.0, listed as compound of formula (1).

Entries after “also recorded” stand apart in the source; their conditions may differ.

Turning to `CC1=C(/C=C/C(C)=C/C=C/C(C)=C/CO)C(C)(C)CCC1` [Retinol], the “increasing effect for collagen synthesis over control group treated only by DMEM” value in data set [1] (10^−6% (W/V), human fibroblast) was determined as 4.94%. In addition, the Photostability level in data set [2] (After 0 hour, 10 mg sample) is 4; in data set [2] (After 2 hours), 3; in data set [2] (After 12 hours) it was 2; in data set [2] (After 24 hours), 1; in data set [2] (After 48 hours), 1. For the same compound, the “Relative activity against RAR α” value on RAR α (Control = 1.0) amounted to 27.5. In addition, the “Relative activity against RAR γ” value on RAR γ (Control = 1.0) stood at 0.9. Also, the “Relative activity against RXR α, β, γ” value in the data set on RXR α, β, γ (Control = 1.0) is recorded as 1.0; in the data set with RXR α, β, γ (Control = 1.0, listed as retinol), “no activity”.
Consider `CC1=C(/C=C/C(C)=C/C=C/C(C)=C/COC(=O)/C=C(C)/C=C/C=C(C)/C=C/C2=C(C)CCCC2(C)C)C(C)(C)CCC1` [Compound of formula (1), Retinyl retinoate], for which the “effect for collagen synthesis (FIG. 2), comparison in words” value in data set [1] (0.000001%, 0.00001%(w/v), human fibroblast) is “superior effect for collagen synthesis at low concentration to retinol or retinoic acid”. For the same compound, the “collagen synthesis effect relative to retinol at the same concentration” value in data set [1] (10^−6% (W/V)) is “about 10 times”. The “increasing effect for collagen synthesis over control group treated only by DMEM” value in data set [1] (10^−6% (W/V), human fibroblast) is listed as 41.29%. Besides, the Photostability level in data set [2] (After 0 hour, 10 mg sample) amounted to 4; in data set [2] (After 2 hours), 4; in data set [2] (After 12 hours) it was 3; in data set [2] (After 24 hours) it was 3; in data set [2] (After 48 hours), 3. Also, the “Relative activity against RAR α” value is 22.5 on RAR α (Control = 1.0); “relatively specific and high activity” on RAR α (setting [3]). For the same compound, the “Relative activity against RAR γ” value on RAR γ (Control = 1.0) is on record as 1.1; on RAR γ (setting [3]), “lower activity than retinoic acid but higher one than retinol; also recorded: low activity”. Further, the “Relative activity against RXR α, β, γ” value in the data set with RXR α, β, γ (Control = 1.0) is 1.0.
